Results published in patent US8952024B2, “Herbicidal pyrimidone derivatives” (E I du Pont de Nemours and Company, priority 2009, dated 2015).

Columns and labels:
Assay in all cases: Test B pre-/postemergence plant response
Assay type in all cases: in vivo
kochia (Kochia scoparia) = system: kochia (Kochia scoparia)
Procedure, shortened: (§1)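 Test compounds, formulated in a non-phytotoxic solvent mixture with surfactant, are applied to the soil surface (loam and sand blend) right after seeding, or sprayed over plants at the 1- to 4-leaf stage grown in peat moss/vermiculite medium. After 13 to 15 days under glasshouse conditions, each species is scored visually from 0 (no effect) to 100 (complete control) against controls.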

[1] = system: large crabgrass (Digitaria sanguinalis)
Procedure, shortened: as §1

[2] = system: goosegrass (Eleusine indica)
Procedure, shortened: as §1

[3] = system: pigweed (Amaranthus retroflexus)
Procedure, shortened: as §1

[4] = system: lambsquarters (Chenopodium album)
Procedure, shortened: as §1

[5] = system: johnsongrass (Sorghum halepense)
Procedure, shortened: as §1

[6] = system: wheat (Triticum aestivum)
Procedure, shortened: as §1

[7] = system: velvetleaf (Abutilon theophrasti)
Procedure, shortened: as §1

[8] = system: giant foxtail (Setaria faberii)
Procedure, shortened: as §1

[9] = system: green foxtail (Setaria viridis)
Procedure, shortened: as §1

[10] = system: downy bromegrass (Bromus tectorum)
Procedure, shortened: as §1

[11] = system: yellow nutsedge (Cyperus esculentus)
Procedure, shortened: as §1

[12] = system: woolly cupgrass (Eriochloa villosa)
Procedure, shortened: as §1

[13] = 31 g ai/ha, postemergence, scale 0 to 100, 0 is no effect, 100 is complete control
[14] = 62 g ai/ha, postemergence, 0 is no effect, 100 is complete control, 13 to 15 days
[15] = Postemergence, 125 g ai/ha, visual rating after 13 to 15 days, scale 0 (no effect) to 100 (complete control)
[16] = Postemergence, 250 g ai/ha, scale 0 to 100 (0 no effect, 100 complete control)
[17] = Preemergence, 31 g ai/ha, scale 0 to 100 (0 no effect, 100 complete control)
[18] = Preemergence, 125 g ai/ha, scale 0 to 100, 0 no effect, 100 complete control
[19] = Preemergence, 250 g ai/ha, 0 to 100 scale
[20] = Preemergence, 62 g ai/ha, scale 0 to 100 (0 no effect, 100 complete control)

## CCCc1ncc(C(=O)C2=C(O)CCCC2=O)c(=O)n1CC1CCCO1 (stereo not shown) [Compound 74]
Kochia (Kochia scoparia); [13]
  Plant response rating, Kochia: 75
Kochia (Kochia scoparia); [14]
  Kochia plant response rating (0 to 100 scale): 75
Kochia (Kochia scoparia); [15]
  Plant response rating, Kochia: 95
Kochia (Kochia scoparia); [16]
  Plant response rating, Kochia: 98
Kochia (Kochia scoparia); [17]
  Plant response rating, Kochia: 80
Kochia (Kochia scoparia); [18]
  Plant response rating, Kochia: 85
Kochia (Kochia scoparia); [19]
  Kochia plant response rating: 85
[1]; [13]
  Plant response rating, Crabgrass, Large: 80
[1]; [14]
  Crabgrass, Large plant response rating (0 to 100 scale): 80
[1]; [15]
  Plant response rating, Crabgrass, Large: 95
[1]; [16]
  Plant response rating, Crabgrass, Large: 95
[1]; [17]
  Plant response rating, Crabgrass, Large: 98
[1]; [20]
  Plant response rating, Crabgrass, Large: 98
[1]; [18]
  Plant response rating, Crabgrass, Large: 100
[1]; [19]
  Crabgrass, Large plant response rating: 100
[2]; [13]
  Plant response rating, Goosegrass: 65
[2]; [14]
  Goosegrass plant response rating (0 to 100 scale): 75
[2]; [15]
  Plant response rating, Goosegrass: 80
[2]; [16]
  Plant response rating, Goosegrass: 85
[2]; [17]
  Plant response rating, Goosegrass: 98
[2]; [20]
  Plant response rating, Goosegrass: 98
[2]; [18]
  Plant response rating, Goosegrass: 100
[2]; [19]
  Goosegrass plant response rating: 100
[3]; [13]
  Plant response rating, Pigweed: 90
[3]; [14]
  Pigweed plant response rating (0 to 100 scale): 98
[3]; [15]
  Plant response rating, Pigweed: 100
[3]; [16]
  Plant response rating, Pigweed: 100
[3]; [17]
  Plant response rating, Pigweed: 98
[3]; [20]
  Plant response rating, Pigweed: 98
[3]; [18]
  Plant response rating, Pigweed: 100
[3]; [19]
  Pigweed plant response rating: 100
[4]; [13]
  Plant response rating, Lambsquarters: 95
[4]; [14]
  Lambsquarters plant response rating (0 to 100 scale): 95
[4]; [15]
  Plant response rating, Lambsquarters: 95
[4]; [16]
  Plant response rating, Lambsquarters: 98
[4]; [17]
  Plant response rating, Lambsquarters: 98
[4]; [20]
  Plant response rating, Lambsquarters: 98
[4]; [18]
  Plant response rating, Lambsquarters: 98
[4]; [19]
  Lambsquarters plant response rating: 100
[5]; [13]
  Plant response rating, Johnsongrass: 0
[5]; [14]
  Johnsongrass plant response rating (0 to 100 scale): 0
[5]; [15]
  Plant response rating, Johnsongrass: 10
[5]; [16]
  Plant response rating, Johnsongrass: 85
[5]; [17]
  Plant response rating, Johnsongrass: 0
[5]; [20]
  Plant response rating, Johnsongrass: 0
[5]; [18]
  Plant response rating, Johnsongrass: 0
[5]; [19]
  Johnsongrass plant response rating: 0
[6]; [13]
  Plant response rating, Wheat: 5
[6]; [14]
  Wheat plant response rating (0 to 100 scale): 5
[6]; [15]
  Plant response rating, Wheat: 30
[6]; [16]
  Plant response rating, Wheat: 50
[6]; [17]
  Plant response rating, Wheat: 0
[6]; [20]
  Plant response rating, Wheat: 0
[6]; [18]
  Plant response rating, Wheat: 0
[6]; [19]
  Wheat plant response rating: 0
[7]; [13]
  Plant response rating, Velvetleaf: 98
[7]; [14]
  Velvetleaf plant response rating (0 to 100 scale): 100
[7]; [15]
  Plant response rating, Velvetleaf: 100
[7]; [16]
  Plant response rating, Velvetleaf: 100
[7]; [17]
  Plant response rating, Velvetleaf: 98
[7]; [20]
  Plant response rating, Velvetleaf: 100
[7]; [18]
  Plant response rating, Velvetleaf: 100
[7]; [19]
  Velvetleaf plant response rating: 100
[8]; [13]
  Plant response rating, Foxtail, Giant: 25
[8]; [14]
  Foxtail, Giant plant response rating (0 to 100 scale): 55
[8]; [15]
  Plant response rating, Foxtail, Giant: 70
[8]; [16]
  Plant response rating, Foxtail, Giant: 85
[8]; [17]
  Plant response rating, Foxtail, Giant: 0
[8]; [20]
  Plant response rating, Foxtail, Giant: 0
[8]; [18]
  Plant response rating, Foxtail, Giant: 5
[8]; [19]
  Foxtail, Giant plant response rating: 45
[9]; [13]
  Plant response rating, Foxtail, Green: 20
[9]; [14]
  Foxtail, Green plant response rating (0 to 100 scale): 20
[9]; [15]
  Plant response rating, Foxtail, Green: 80
[9]; [16]
  Plant response rating, Foxtail, Green: 85
[9]; [17]
  Plant response rating, Foxtail, Green: 0
[9]; [20]
  Plant response rating, Foxtail, Green: 0
[9]; [18]
  Plant response rating, Foxtail, Green: 0
[9]; [19]
  Foxtail, Green plant response rating: 0
[10]; [13]
  Plant response rating, Bromegrass, Downy: 0
[10]; [14]
  Bromegrass, Downy plant response rating (0 to 100 scale): 5
[10]; [15]
  Plant response rating, Bromegrass, Downy: 5
[10]; [16]
  Plant response rating, Bromegrass, Downy: 35
[10]; [17]
  Plant response rating, Bromegrass, Downy: 0
[10]; [20]
  Plant response rating, Bromegrass, Downy: 0
[10]; [18]
  Plant response rating, Bromegrass, Downy: 0
[10]; [19]
  Bromegrass, Downy plant response rating: 0
[11]; [13]
  Plant response rating, Nutsedge, Yellow: 20
[11]; [14]
  Nutsedge, Yellow plant response rating (0 to 100 scale): 20
[11]; [15]
  Plant response rating, Nutsedge, Yellow: 70
[11]; [16]
  Plant response rating, Nutsedge, Yellow: 70
[11]; [17]
  Plant response rating, Nutsedge, Yellow: 20
[11]; [20]
  Plant response rating, Nutsedge, Yellow: 55
[11]; [18]
  Plant response rating, Nutsedge, Yellow: 65
[11]; [19]
  Nutsedge, Yellow plant response rating: 90
[12]; [13]
  Plant response rating, Cupgrass, Woolly: 10
[12]; [14]
  Cupgrass, Woolly plant response rating (0 to 100 scale): 10
[12]; [15]
  Plant response rating, Cupgrass, Woolly: 55
[12]; [16]
  Plant response rating, Cupgrass, Woolly: 75
[12]; [17]
  Plant response rating, Cupgrass, Woolly: 0
[12]; [20]
  Plant response rating, Cupgrass, Woolly: 0
[12]; [18]
  Plant response rating, Cupgrass, Woolly: 0
[12]; [19]
  Cupgrass, Woolly plant response rating: 5
